Side chains are listed from the residue outwards. Peptide text beside a SMILES is read from it. * marks the point of attachment. Biotin = O=C1N[C@H]2[C@H](CS[C@H]2CCCCC(=O)*)N1; X1 = N=C(N)NCCCC(N*)P(=O)(Oc1ccccc1)Oc1ccccc1; Palmitoyl = CCCCCCCCCCCCCCCC(=O)*; Ahx = NCCCCCC(=O)O
Tests used:
trypsin = test: Fluorogenic protease activity assay, trypsin; format: biochemical, human; conditions: 10 μM inhibitor, Z-Gly-Gly-Arg-NH2Mec 50 μM, N = 3
Excerpt: (§1) Recombinant human enzymes were sourced as follows: furin and matriptase (R&D Systems); prostasin (Sino Biological); trypsin and chymotrypsin (Sigma-Aldrich); factor Xa and neutrophil elastase (Merck Millipore) and proteinase-3 and cathepsin G (Elastin Products, Missouri). Fluorogenic substrates were sourced as follows: p-Glu-Arg-Thr-Lys-Arg-NH2Mec and Boc-Gln-Ala-Arg-NH2Mec (R&D Systems); Boc-Ile-Glu-Gly-Arg-NH2Mec (Bachem); Z-Gly-Gly-Arg-NH2Mec, MeOSuc-Ala-Ala-Pro-Val-NH2Mec and Suc-Ala-Ala-Pro-Phe-NH2Mec (Sigma-Aldrich). All chemicals and reagents for the synthesis of QUB-F1 were supplied by Sigma-Aldrich unless otherwise indicated. Fmoc-Lys(Boc)-SASRIN resin was sourced from Bachem. Fmoc-protected amino acids and HCTU were supplied by Merck Millipore.
(§2) Recombinant protease activities were assessed using the cognate fluorogenic substrates (final concentration 50 μM) as follows: trypsin (Z-Gly-Gly-Arg-NH2Mec), prostasin and matriptase (Boc-Gln-Ala-Arg-NH2Mec), factor Xa (Boc-Ile-Glu-Gly-Arg-NH2Mec), neutrophil elastase and proteinase 3 (MeO-Suc-Ala-Ala-Pro-Val-NH2Mec), chymotrypsin and cathepsin G (Suc-Ala-Ala-Pro-Phe-NH2Mec). The rate of substrate hydrolysis in the presence or absence of furin inhibitors was assessed by continuous recording at λex 360 nm, λem 480 nm, over a period of 60 minutes using a FLUOstar Optima microplate reader (BMG Labtech). […]

prostasin = target: T1, prostasin (Homo sapiens, UniProt Q16651); test: Fluorogenic protease activity assay, prostasin; format: biochemical; conditions: 10 μM inhibitor, Boc-Gln-Ala-Arg-NH2Mec 50 μM, N = 3
T1 construct: purchased Sino Biological
T1 sequence (Q16651 33-343): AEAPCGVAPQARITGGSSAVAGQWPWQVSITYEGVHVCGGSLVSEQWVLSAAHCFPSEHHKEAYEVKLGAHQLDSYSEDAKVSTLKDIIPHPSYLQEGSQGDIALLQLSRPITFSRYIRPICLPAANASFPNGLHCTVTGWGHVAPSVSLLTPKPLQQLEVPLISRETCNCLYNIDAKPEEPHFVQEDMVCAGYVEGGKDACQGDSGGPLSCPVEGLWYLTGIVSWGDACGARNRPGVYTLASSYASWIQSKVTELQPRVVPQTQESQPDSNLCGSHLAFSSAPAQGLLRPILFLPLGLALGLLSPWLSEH
Excerpt: as §1, §2

matriptase = target: T2, matriptase (Homo sapiens, UniProt Q9Y5Y6); test: Fluorogenic protease activity assay, matriptase; format: biochemical; conditions: 10 μM inhibitor, Boc-Gln-Ala-Arg-NH2Mec 50 μM, N = 3
T2 construct: purchased R&D Systems
T2 sequence (Q9Y5Y6 1-855): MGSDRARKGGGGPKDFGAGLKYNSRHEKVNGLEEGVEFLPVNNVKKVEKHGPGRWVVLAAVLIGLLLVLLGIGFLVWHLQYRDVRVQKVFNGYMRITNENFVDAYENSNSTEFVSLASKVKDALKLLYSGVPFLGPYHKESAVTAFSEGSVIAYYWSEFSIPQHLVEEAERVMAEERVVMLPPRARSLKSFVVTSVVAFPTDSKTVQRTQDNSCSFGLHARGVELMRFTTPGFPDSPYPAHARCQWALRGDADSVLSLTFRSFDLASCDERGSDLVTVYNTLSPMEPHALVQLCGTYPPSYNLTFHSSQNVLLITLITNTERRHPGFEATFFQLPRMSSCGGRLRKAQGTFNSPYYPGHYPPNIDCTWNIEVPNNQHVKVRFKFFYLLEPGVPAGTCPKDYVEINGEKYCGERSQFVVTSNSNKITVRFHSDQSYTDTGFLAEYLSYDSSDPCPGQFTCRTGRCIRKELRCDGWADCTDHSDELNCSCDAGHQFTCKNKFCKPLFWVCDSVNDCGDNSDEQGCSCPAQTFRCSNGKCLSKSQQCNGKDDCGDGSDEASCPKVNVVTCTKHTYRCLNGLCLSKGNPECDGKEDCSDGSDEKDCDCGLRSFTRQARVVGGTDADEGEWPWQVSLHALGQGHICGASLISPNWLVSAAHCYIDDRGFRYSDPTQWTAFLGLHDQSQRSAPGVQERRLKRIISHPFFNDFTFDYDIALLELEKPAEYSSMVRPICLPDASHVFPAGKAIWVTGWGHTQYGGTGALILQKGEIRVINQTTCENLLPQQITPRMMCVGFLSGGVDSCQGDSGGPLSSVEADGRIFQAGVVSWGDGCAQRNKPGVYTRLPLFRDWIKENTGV
Excerpt: as §1, §2

neutrophil elastase = target: T3, neutrophil elastase (Homo sapiens, UniProt P08246); test: Fluorogenic protease activity assay, neutrophil elastase; format: biochemical; conditions: 10 μM inhibitor, MeO-Suc-Ala-Ala-Pro-Val-NH2Mec 50 μM, N = 3
T3 construct: purchased Merck Millipore
T3 sequence (P08246 30-267): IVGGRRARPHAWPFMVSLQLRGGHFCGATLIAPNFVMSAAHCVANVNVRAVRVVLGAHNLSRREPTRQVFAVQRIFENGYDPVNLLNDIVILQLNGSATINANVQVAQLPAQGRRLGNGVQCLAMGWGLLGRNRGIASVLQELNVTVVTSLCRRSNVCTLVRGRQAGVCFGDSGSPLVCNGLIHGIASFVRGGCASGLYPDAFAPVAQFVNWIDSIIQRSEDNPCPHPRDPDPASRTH
Excerpt: as §1, §2

cathepsin G = target: T4, cathepsin G (Homo sapiens, UniProt P08311); test: Fluorogenic protease activity assay, cathepsin G; format: biochemical; conditions: 10 μM inhibitor, Suc-Ala-Ala-Pro-Phe-NH2Mec 50 μM, N = 3
T4 construct: purchased Elastin Products, Missouri
T4 sequence (P08311 21-255): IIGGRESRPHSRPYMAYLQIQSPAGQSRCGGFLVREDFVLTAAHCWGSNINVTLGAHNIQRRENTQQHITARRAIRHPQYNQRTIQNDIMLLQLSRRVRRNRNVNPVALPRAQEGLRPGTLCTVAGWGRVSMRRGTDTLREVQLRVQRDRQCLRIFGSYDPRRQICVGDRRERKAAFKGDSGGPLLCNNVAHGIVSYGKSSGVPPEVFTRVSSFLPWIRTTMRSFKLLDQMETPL
Excerpt: as §1, §2

recombinant human furin = target: T5, recombinant human furin (Homo sapiens, UniProt P09958); test: Western blot with streptavidin-HRP of inhibitor-furin complex; format: binding; conditions: QUB-F1 100 μM, furin 0.4 μg, reducing and denaturing conditions
T5 construct: purchased R&D Systems
T5 sequence (P09958 108-794): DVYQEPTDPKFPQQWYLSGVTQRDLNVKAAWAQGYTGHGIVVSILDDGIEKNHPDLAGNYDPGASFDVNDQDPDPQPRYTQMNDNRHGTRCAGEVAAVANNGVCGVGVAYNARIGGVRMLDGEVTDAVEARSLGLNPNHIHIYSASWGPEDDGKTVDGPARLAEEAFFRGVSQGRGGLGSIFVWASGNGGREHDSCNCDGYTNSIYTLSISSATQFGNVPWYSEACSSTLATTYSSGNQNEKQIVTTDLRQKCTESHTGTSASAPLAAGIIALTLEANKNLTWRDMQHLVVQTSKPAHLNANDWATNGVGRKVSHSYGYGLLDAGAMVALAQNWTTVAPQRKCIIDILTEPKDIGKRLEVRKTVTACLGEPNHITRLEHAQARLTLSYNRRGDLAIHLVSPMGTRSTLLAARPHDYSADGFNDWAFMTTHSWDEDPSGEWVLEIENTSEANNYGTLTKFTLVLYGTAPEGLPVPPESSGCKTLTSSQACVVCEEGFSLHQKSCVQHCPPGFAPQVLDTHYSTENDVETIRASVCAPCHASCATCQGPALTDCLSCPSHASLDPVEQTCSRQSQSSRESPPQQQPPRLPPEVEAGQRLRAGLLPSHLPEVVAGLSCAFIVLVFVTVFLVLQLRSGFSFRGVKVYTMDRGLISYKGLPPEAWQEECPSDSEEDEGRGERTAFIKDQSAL
Method: Recombinant human furin (0.4 μg) was incubated with QUB-F1 (100 μM) for 45 minutes at 37°C. The sample was then denatured and reduced in Laemmli treatment buffer for 5 minutes at 95°C, resolved by SDS-PAGE, before transfer onto a nitrocellulose membrane which was blocked with a solution of Tris-buffered saline (TBS) containing 3% (w/v) bovine serum albumin and 0.1% (v/v) Tween-20. The membrane was subsequently probed with a streptavidin-Horseradish peroxidase conjugate (1:10,000) (Vector-Laboratories) in blocking solution for 1 h prior to detection by chemiluminescence (Luminata Forte Western HRP substrate (Millipore)).
Fig 1 Irreversible inhibition and visualization of recombinant human furin by QUB-F1. […] The inhibitor-proteases complex can be visualized using streptavidin-HRP, which detects the biotin reporter group on the compound.

`CCCCCCCCCCCCCCCC(=O)N[C@@H](CCCCNC(=O)CCCCCNC(=O)CCCC[C@@H]1SC[C@@H]2NC(=O)N[C@@H]21)C(=O)N[C@@H](CCCNC(=N)N)C(=O)N[C@H](C(=O)N[C@@H](CCCCN)C(=O)NC(CCCNC(=N)N)P(=O)(Oc1ccccc1)Oc1ccccc1)C(C)C` (stereo partly drawn) [QUB-F1, N^α-Pal-N^ω-(Biotinyl-Ahx)-Lys-RVKR^P(OPh)2] (Palmitoyl-K([Ahx-Biotin])RVK-X1) was tested, and the inhibition of trypsin (trypsin) was “did not”, the inhibition of prostasin (prostasin) was “did not” and the inhibition of matriptase (matriptase) was “did not”. The “inhibition of neutrophil elastase” value (neutrophil elastase) was “Neither compound was found to inhibit”, the “inhibition of cathepsin G” value (cathepsin G) was “Neither compound was found to inhibit” and the “irreversible binding to furin (visualized by streptavidin-HRP)” value (recombinant human furin) was “irreversibly bound”.
